Structures are written as SMILES.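 The compound was tested at five concentrations on cells cultured in 96-well plates, with a 48-hour exposure period. GI50 marks 50% less growth. TGI denotes the concentration required for complete inhibition of growth.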 A value given as a limit tells only on which side of the number the result lay.

These results are taken from PubChem BioAssay (NCI).

Some test systems named below: CCRF-CEM leukemia; DU-145 prostate; HS 578T breast; HT29 colon; K-562 leukemia; MCF7 breast; NCI-H23 lung; NCI-H522 lung; SF-295 CNS; SW-620 colon.
Common to all, as to assay: growth of human tumour cells (NCI), 48 h

As to `COc1ccc2c(CN3CCCC[C@H]3O)cc3cc4c(cc3c2c1)OCO4`, the GI50 in the assay on CCRF-CEM leukemia is 0.528 µM; in the assay with DU-145 prostate it was 0.475 µM; in the assay on HS 578T breast, 0.663 µM; in the assay on HT29 colon, 0.274 µM; with K-562 leukemia, 0.364 µM; in the assay with MCF7 breast it was 0.314 µM. In addition, the GI50 was 0.445 µM with NCI-H23 lung, 0.214 µM in the assay with NCI-H522 lung, 0.354 µM in the assay with SF-295 CNS and 0.31 µM with SW-620 colon. The TGI was found to be 4.07 µM with CCRF-CEM leukemia; 7.24 µM with DU-145 prostate; 2.94 µM in the assay on HS 578T breast; 1.93 µM with HT29 colon; 4.35 µM with K-562 leukemia; 3.22 µM in the assay with MCF7 breast. The TGI in the assay with NCI-H23 lung came to 1.82 µM; in the assay with NCI-H522 lung it was 0.559 µM; in the assay with SF-295 CNS, 2.81 µM; with SW-620 colon, 4.65 µM.
Consider `COC(=O)N[C@@H](C)CNc1nccc(-c2cn(C(C)C)nc2-c2cc(Cl)cc(NS(C)(=O)=O)c2F)n1`, for which the GI50 with CCRF-CEM leukemia was 38.2 µM; in the assay on DU-145 prostate, greater than 93 µM; with HS 578T breast it was 0.599 µM; in the assay with HT29 colon it was less than 0.01 µM; in the assay on K-562 leukemia it was 33.6 µM; with MCF7 breast, 98.5 µM. In addition, the GI50 is greater than 51.3 µM with NCI-H23 lung, greater than 55.2 µM in the assay on NCI-H522 lung, 55.7 µM in the assay with SF-295 CNS and 12.1 µM with SW-620 colon. The TGI with CCRF-CEM leukemia, in the assay with DU-145 prostate, in the assay with HS 578T breast, in the assay with HT29 colon, in the assay on K-562 leukemia and in the assay with MCF7 breast was greater than 100 µM in each case. Moreover, the TGI in the assay with NCI-H23 lung, in the assay with NCI-H522 lung, with SF-295 CNS and with SW-620 colon was greater than 100 µM in each case.
Take `COc1ccc(C2=NNC(c3sc(Cl)nc3Cl)C2)cc1` (stereo unspecified): the GI50 was 2.75 µM with CCRF-CEM leukemia; 7.38 µM in the assay on DU-145 prostate; 16.8 µM in the assay with HS 578T breast; 5.12 µM with HT29 colon; 3.63 µM with K-562 leukemia; 3.28 µM with MCF7 breast. In addition, the GI50 in the assay with NCI-H23 lung was 10.6 µM; with NCI-H522 lung it was 2.23 µM; in the assay on SF-295 CNS, 25.1 µM; in the assay on SW-620 colon, 4.87 µM. The TGI in the assay on CCRF-CEM leukemia was determined as 15.7 µM; with DU-145 prostate it was 20.4 µM; with HS 578T breast, 67.4 µM; with HT29 colon, 18.6 µM; in the assay with K-562 leukemia, 36.8 µM; in the assay on MCF7 breast, 16.4 µM. Moreover, the TGI in the assay on NCI-H23 lung worked out at 26.7 µM; with NCI-H522 lung it was 7.69 µM; in the assay with SF-295 CNS, 77.9 µM; in the assay on SW-620 colon, 23.6 µM.
For `COc1ccc(C(=O)c2ccccc2)c(O)c1`, the GI50 was greater than 100 µM in the assay on CCRF-CEM leukemia; 80 µM with DU-145 prostate; 61.2 µM with HS 578T breast; 43.8 µM in the assay with HT29 colon; 91 µM with K-562 leukemia; greater than 100 µM with MCF7 breast. Besides, the GI50 with NCI-H23 lung is greater than 100 µM; with NCI-H522 lung, 89.9 µM; with SF-295 CNS, 36 µM; in the assay on SW-620 colon, greater than 100 µM. Besides, the TGI in the assay with CCRF-CEM leukemia, in the assay with DU-145 prostate, with HS 578T breast, with HT29 colon, in the assay with K-562 leukemia and in the assay with MCF7 breast was greater than 100 µM throughout. The TGI in the assay on NCI-H23 lung, in the assay on NCI-H522 lung, in the assay on SF-295 CNS and in the assay with SW-620 colon was greater than 100 µM each time.
With `O=C(O)C(Cc1ccccc1)N1C(=O)/C(=C/C(Cl)=C/c2ccc([N+](=O)[O-])cc2)SC1=S` (stereo unspecified), the GI50 is 2.92 µM in the assay on CCRF-CEM leukemia; 2.06 µM in the assay on DU-145 prostate; 4.37 µM in the assay on HS 578T breast; 2.84 µM in the assay with HT29 colon; 3.01 µM in the assay with K-562 leukemia; 2.38 µM in the assay on MCF7 breast. The GI50 in the assay on NCI-H23 lung is 2.13 µM; in the assay with NCI-H522 lung, 1.72 µM; with SF-295 CNS, 2.59 µM. Moreover, the TGI with CCRF-CEM leukemia is greater than 100 µM; in the assay with DU-145 prostate, 4.56 µM; in the assay on HS 578T breast, greater than 100 µM; with HT29 colon, 8.47 µM; with K-562 leukemia, greater than 100 µM; in the assay on MCF7 breast it was 10.7 µM. Besides, the TGI in the assay on NCI-H23 lung stood at 4.86 µM; in the assay with NCI-H522 lung, 4.47 µM; in the assay on SF-295 CNS it was 7.85 µM.
As for `CSC(=S)NCc1cn(C)c2ccccc12`, the GI50 is 24.4 µM with CCRF-CEM leukemia; 29.1 µM in the assay on DU-145 prostate; 26.3 µM in the assay on HS 578T breast; 65.3 µM in the assay on HT29 colon; 24.3 µM with MCF7 breast; 29.8 µM with NCI-H23 lung. In addition, the GI50 is 21.5 µM in the assay with NCI-H522 lung, 33.5 µM in the assay with SF-295 CNS and 30.1 µM in the assay on SW-620 colon. Also, the TGI in the assay on CCRF-CEM leukemia was greater than 100 µM; in the assay with DU-145 prostate, greater than 100 µM; with HS 578T breast it was 73.6 µM; with HT29 colon it was greater than 100 µM; in the assay on MCF7 breast, 90.9 µM; with NCI-H23 lung it was 87.7 µM. Also, the TGI in the assay on NCI-H522 lung is 86.1 µM; in the assay with SF-295 CNS, greater than 100 µM; in the assay with SW-620 colon it was greater than 100 µM.
